Measurements from ChEMBL document CHEMBL3098076, “Triazino indole-quinoline hybrid: a novel approach to antileishmanial agents” (Bioorg Med Chem Lett, 2014).

Columns and labels:
[1] = test system: Leishmania donovani; test: Antileishmanial activity against extracellular promastigote stage of Leishmania donovani; format: functional, organism-based
[2] = (§1) Selectivity index, ratio of CC50 for African green monkey Vero cells to IC50 for amastigote stage of Leishmania donovani MHOM/IN/80/Dd8; format: functional
[3] = test system: Leishmania donovani; test: Antileishmanial activity against intracellular amastigote stage of Leishmania donovani MHOM/IN/80/Dd8 expressing luciferase firefly reporter gene infected in mouse J774A1 cells after 72 hrs by luminescence assay; format: functional, organism-based, J774.A1
[4] = (§2) Cytotoxicity against African green monkey Vero cells after 72 hrs by MTT assay; format: cell-based; settings: chlorocebus sabaeus, Vero cells
[5] = test system: Vero; test: as §2; format: cell-based; settings: chlorocebus sabaeus, vero, 72 h
[6] = test system: Vero; test: as §1; format: functional
[7] = Leishmania donovani, MHOM/IN/80/Dd8, J774.A1, 72 h, read-out: IC50

Row | Molecule | IC50 ([1]; Leishmania donovani) [µM] | IC50 [3, 7] [µM] | Ratio CC50/IC50 [2] | CC50 at 72 h [4] [µM] | IC50 ([3]; j774.a1) | also measured
1 | CCn1c2ccc(Br)cc2c2nnc(SCCNc3ccnc4cc(Cl)ccc34)nc21 | > 40 | > 40 |  |  |  | 
2 | SODIUM ANTIMONY GLUCONATE [listing 1 of 2 here] |  |  |  |  |  | IC50 [1]: > 200 µM; IC50 ([3]; j774.a1, read-out: IC50): 54.6 µM; CC50 [5]: > 400 µM
3 | Clc1ccc2c(NCCCSc3nnc4c(n3)[nH]c3ccccc34)ccnc2c1 | 18.9 |  |  |  | ND(toxic) | 
4 | CC(C)n1c2ccccc2c2nnc(SCCNc3ccnc4cc(Cl)ccc34)nc21 | 21.9 | 2.88 | 7 | 19.4 |  | 
5 | CCCCCCCCCCCCCCCCOP(=O)([O-])OCC[N+](C)(C)C [MILTEFOSINE] | 1.1 |  | 7 |  |  | 
6 | SODIUM ANTIMONY GLUCONATE [listing 2 of 2 here] |  |  |  |  |  | Ratio CC50/IC50 [6]: > 7
7 | CCCn1c2ccccc2c2nnc(SCCNc3ccnc4cc(Cl)ccc34)nc21 | > 40 | 14.7 | 3 | 41.7 |  | 
8 | Cn1c2ccc(Br)cc2c2nnc(SCCNc3ccnc4cc(Cl)ccc34)nc21 | > 40 | > 40 |  |  |  | 
9 | CCCCn1c2ccccc2c2nnc(SCCNc3ccnc4cc(Cl)ccc34)nc21 | > 40 | 29.5 |  |  |  | 
10 | Cn1c2ccccc2c2nnc(SCCCNc3ccnc4cc(Cl)ccc34)nc21 | 24.1 |  |  |  | ND(toxic) | 

Continued, in another order:

Row | IC50 ([1]; Leishmania donovani) [µM] | IC50 [3, 7] [µM] | Molecule | Ratio CC50/IC50 [2] | CC50 at 72 h [4] [µM] | IC50 ([3]; j774.a1) | also measured
11 | 17 | 5.69 | CC(C)Cn1c2ccccc2c2nnc(SCCNc3ccnc4cc(Cl)ccc34)nc21 | 5 | 28.6 |  | 
12 | 1.95 |  | Cn1c2ccc([N+](=O)[O-])cc2c2nnc(SCCNc3ccnc4cc(Cl)ccc34)nc21 |  |  | ND(toxic) | 
13 | 8.08 |  | Clc1ccc2c(NCCSc3nnc4c5ccccc5n(Cc5ccccc5)c4n3)ccnc2c1 |  |  | ND(toxic) | 
14 | 6.46 | 6.46 | Cn1c2nc(SCCNc3ccnc4cc(Cl)ccc34)nnc2c2cccc(C(F)(F)F)c21 | 6 | 39.3 |  | 
15 | 6.27 | 0.36 | Cn1c2ccccc2c2nnc(SCCNc3ccnc4cc(Cl)ccc34)nc21 | >1111 | > 400 |  | 
16 | 15 |  | Cn1c2ccccc2c2nnc(SCCCCCNc3ccnc4cc(Cl)ccc34)nc21 |  |  | ND(toxic) | 
17 | 9.1 | 7.1 | CCn1c2ccccc2c2nnc(SCCNc3ccnc4cc(Cl)ccc34)nc21 | 7 | 61.5 |  | 
18 | 2.66 |  | CCn1c2ccccc2c2nnc(SCCCNc3ccnc4cc(Cl)ccc34)nc21 |  |  | ND(toxic) | 
19 | 7.9 | 10.1 | C=CCn1c2ccccc2c2nnc(SCCNc3ccnc4cc(Cl)ccc34)nc21 | 1 | 10.5 |  | 
20 | 8.95 |  | CCn1c2ccccc2c2nnc(SCCCCCNc3ccnc4cc(Cl)ccc34)nc21 |  |  | ND(toxic) | 
21 | 8.75 | 1.11 | Clc1ccc2c(NCCSc3nnc4c(n3)[nH]c3ccccc34)ccnc2c1 | 67 | 74.3 |  | 
22 | 7.09 |  | Clc1ccc2c(NCCSc3nnc4c(n3)[nH]c3ccc(Br)cc34)ccnc2c1 |  |  | ND(toxic) | 
